1 compound from patent publication US9572827B2, “Pharmaceutical composition for treating depression and method for preparation thereof” (Beijing Wonner Biotech, Ltd. Co., priority 2005, dated 2017) can be followed below.

SMILES strings stand for the structures.

Assay [1] deals with ICR mice. As to the kind of experiment: Body temperature decrease experiment induced by resetpine. The settings on record: 16.7 mg/kg, 2 times per day for 7 days. It counts as in vivo. An excerpt: Experiment 2: Body Temperature Decrease Experiment Induced by Resetpine
Experimental animal: ICR mice
Experimental pharmaceuticals: The pharmaceutical of the Embodiment 3 of the present invention is provided by Beijing Wonner Biotech Ltd. Co., the depression-relieving pill is the product of Zhengzhou Yumi Medicines Co. Ltd., and Paroxitine (Paxil) is the product of Zhong Mei Tianjin Smith Kline pharmaceuticals Co. Ltd.
I. Group division: 1. Large dose of the Embodiment 3 medicine of the present invention (188.5 mg/kg), 2. middle dose of the Embodiment 3 medicine of the present invention (94.25 mg/kg), 3. small dose of the Embodiment 3 medicine of the present invention (47.125 mg/kg), 4. depression-reliving pill (650 mg/kg), 5. Paroxitine (16.7 mg/kg), and 6. physiological saline. (Ten (10) mice are in each group.)
II. Administration of drug: the abovementioned pharmaceutical water solutions are fed into the stomach according to 0.2 ml/10 g body weight, 2 times per day for a total of 7 days.
III. After the last administration of drug, the anal temperature (abbreviated as anal temp.) is determined, and then 2 mg resetpine per kg of the body weight is taken by intraperitoneal injection. After injecting the resetpine for 2, 3, 4, 5, 6 and 7 hours respectively, the anal temperature of the mice are determined.
The variance analysis calculation and the p-value compared with the control of the experimental result are calculated by using SPSS 11.5 analytic software.

The subject of assay [2] is ICR mice. As to the kind of experiment: Mouse tail-hanging experiment. The settings on record: 16.7 mg/kg, fed into the stomach 2 times per day for 7 days; 1 hour after last administration; last 5 of 6 minutes. Type of assay: in vivo. Here is the method: Experiment 1: “Mouse Tail-Hanging” Experiment Experimental animal: ICR mice Experimental pharmaceuticals: The pharmaceutical of the Embodiment 3 of the present invention is provided by Beijing Wonner Biotech Ltd. Co., the depression-relieving pill is the product of Zhengzhou Yumi Medicines Co. Ltd., and Paroxitine (Paxil) is the product of Zhong Mei Tianjin Smith Kline pharmaceuticals Co. Ltd. I. Group division: 1. Large dose of the Embodiment 3 medicine of the present invention (188.5 mg/kg), 2. middle dose of the Embodiment 3 medicine of the present invention (94.25 mg/kg), 3. small dose of the Embodiment 3 medicine of the present invention (47.125 mg/kg), 4. depression-reliving pill (650 mg/kg), 5. Paroxitine (16.7 mg/kg), and 6. physiological saline. (Ten (10) mice are in each group.) II. Administration of drug: The abovementioned pharmaceutical water solutions are fed into the stomach according to 0.2 ml/10 g body weight, 2 times per day for a total of 7 days. After 1 hour of the last administration of drug, the mouse tail-hanging experiment is proceeded. III. […] The time of non-movement of the mouse for the last 5 minutes is recorded. The variance analysis calculation and the p-value compared with the control of the experimental result are calculated by using SPSS 11.5 analytic software.

As for `Fc1ccc([C@@H]2CCNC[C@H]2COc2ccc3c(c2)OCO3)cc1` [Paroxitine], the “Decreased anal temp. for 2 hr” value in the assay with ICR mice [1] (2 hr after resetpine 2 mg/kg i.p.) turned out to be 1.29 ± 0.47 °C. In the assay with ICR mice [1] (3 hr after resetpine 2 mg/kg i.p.), the “Decreased anal temp. for 3 hr” value is 1.08 ± 0.35 °C. Besides, the “Decreased anal temp. for 4 hr” value in the assay on ICR mice [1] (4 hr after resetpine 2 mg/kg i.p.) was 1.55 ± 0.64 °C. For the same compound, in the assay with ICR mice [1] (5 hr after resetpine 2 mg/kg i.p.), the “Decreased anal temp. for 5 hr” value is 1.44 ± 0.32 °C. Further, the “Decreased anal temp. for 6 hr” value in the assay with ICR mice [1] (6 hr after resetpine 2 mg/kg i.p.) came out at 2.51 ± 0.47 °C. Moreover, the “Decreased anal temp. for 7 hr” value in the assay with ICR mice [1] (7 hr after resetpine 2 mg/kg i.p.) came out at 2.76 ± 0.59 °C. This compound also gave a Time of non-movement in the assay with ICR mice [2] of 54.98 ± 46.92 s.
